{
  "source": "patent US20220072098A1",
  "about": "(priority 2012, published 2022)",
  "molecules": {"B1": {"name": "trypsinogen: model protein for GDNF, from bovine pancreas (protein, UniProt P00760 18-246, looked up)", "pro-form": "VDDDDKIVGGYTCGANTVPYQVSLNSGYHFCGGSLINSQWVVSAAHCYKSGIQVRLGEDNINVVEGNEQFISASKSIVHPSYNSNTLNNDIMLIKLKSAASLNSRVASISLPTSCASAGTQCLISGWGNTKSSGTSYPDVLKCLKAPILSDSSCKSAYPGQITSNMFCAGYLEGGKDSCQGDSGGPVVCSGKLQGIVSWGSGCAQKNKPGVYTKVCNYVSWIKQTIASN", "modifications": "pro-form", "notes": "model protein for GDNF, from bovine pancreas"}, "B2": {"name": "GDNF: glial cell line-derived neurotrophic factor, human (protein, UniProt P39905 78-211, looked up)", "Glial cell line-derived …": "SPDKQMAVLPRRERNRQAAAANPENSRGKGRRGQRGKNRGCVLTAIHLNVTDLGLGYETKEELIFRYCSGSCDAAETTYDKILKNLSRNRRLVSDKVGQACCRPIAFDDDLSFLDDNLVYHILRKHSAKRCGCI"}},
  "key": {"[1]": {"test": "Analgesia after i.v. injection of enkephalin, free or in vesicles", "conditions": "i.v. analgesic peptide (enkephalin)"}, "AChE [2]": {"biological_target": "T1, AChE (Homo sapiens, UniProt P22303)", "T1 sequence (P22303 32-614)": "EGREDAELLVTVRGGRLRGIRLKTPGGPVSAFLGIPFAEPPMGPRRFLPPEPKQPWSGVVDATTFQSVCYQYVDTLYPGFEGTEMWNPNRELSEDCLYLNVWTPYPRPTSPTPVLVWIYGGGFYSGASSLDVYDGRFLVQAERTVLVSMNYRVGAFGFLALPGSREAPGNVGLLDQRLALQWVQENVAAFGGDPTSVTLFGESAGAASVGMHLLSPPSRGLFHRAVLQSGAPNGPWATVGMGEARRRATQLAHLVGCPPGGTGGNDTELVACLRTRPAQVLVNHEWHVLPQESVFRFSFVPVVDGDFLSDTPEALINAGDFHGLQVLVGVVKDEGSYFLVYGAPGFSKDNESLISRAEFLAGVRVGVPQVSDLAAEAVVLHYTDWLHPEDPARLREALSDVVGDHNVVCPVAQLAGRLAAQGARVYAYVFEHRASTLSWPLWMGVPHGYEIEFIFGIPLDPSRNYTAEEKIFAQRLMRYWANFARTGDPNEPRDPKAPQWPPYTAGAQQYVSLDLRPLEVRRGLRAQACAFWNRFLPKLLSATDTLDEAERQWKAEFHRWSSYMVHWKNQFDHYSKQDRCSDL", "test": "Inhibition of ATC hydrolysis by AChE (Lineweaver-Burk analysis)", "format": "biochemical", "conditions": "three concentrations; Km affected, Vmax not", "description": "In order to compare between the inhibitory potentials of the two bolaamphiphiles, the rate of ATC hydrolysis was measured in presence of three concentrations of the GLH compounds and assessed the results by a Lineweaver-Burk analysis."}, "[3]": {"test": "Vesicle size and size distribution by dynamic light scattering (DLS)", "format": "physicochemical", "description": "Dynamic light scattering (DLS): Vesicle size and homogeneity was determined by DLS using HPPS-NIBS, light scattering apparatus (ALV-Laser, Langen, Germany) with the laser powered at 3 mW HE-Ne laser line (632.8 nm), at the Ilse Katz Institute for Nanoscale Science and Technology of BGU. Standard vesicle solutions were diluted 1:10 and loaded into a cuvette for light scattering measurements. The measurements were conducted at an angle of 173°, during 30-180 seconds, from different positions of the cell in order to avoid measurements of multiple scattering.\nZeta-potential measurements: Particle size and zeta potential were measured by using zeta potential and Particle size analyzer, ZetaPlus, (Brookhaven Instruments Corporation Ltd, NY, USA), in the range of 10-1000 nm, in the Chemistry Department of BGU. Vesicle solutions were diluted 1:10 in appropriate buffers and loaded into a 4 ml cuvette for light scattering measurements. The measurements were conducted at an angle of 90°, at 10 repeated measurements, and zeta potential was estimated as an average of 5 repeated readings."}, "AChE [4]": {"biological_target": "T1, AChE", "test": "Head group hydrolysis by AChE / choline esterases", "format": "biochemical", "description": "FIG. 41: Hydrolysis of the ACh head group of bioamphiphiles GLH-20 and GLH-32 by AChE. Hydrolysis was measured by determining the pH change after addition of AChE to the incubation medium and was converted to change in the proton concentration."}, "[5]": {"test": "Vesicle stability in storage / PBS (CF encapsulation, size)", "experimental": "Vesicle stability: To determine vesicle stability, samples of carboxyfluorescein (CF)-loaded vesicles (see below method for loading vesicles with CF and determination of percent encapsulation) were incubated in PBS and percent encapsulation was determined at different times.\nTo determine the stability of vesicles with encapsulated protein, vesicle samples were incubated in PBS and the percent encapsulation was determined at different times. Stability was also determined by changes in the vesicle size (by DLS, as was described in previous sections) at various time points after vesicle preparation.\nVesicle stability was evaluated by measuring both changes in the concentration of encapsulated carboxyfluorescein (CF) and vesicles size as a function of time when incubated in PBS at room temperature.\nVesicles were prepared from each of the above formulations by the method of film hydration followed by sonication as described above, and percent CF encapsulation was determined at different times in storage at 4° C."}, "[6]": {"test": "CF concentration in brain after i.v. injection of CF-loaded vesicles", "format": "in vivo, mice", "conditions": "30 min", "description": "Unless otherwise stated, animals were pretreated 15 min before the injection of the test material by pyridostigmine (o.5 mg/kg, i.m.) to inhibit peripheral ChE and thus, reduce vesicle decapsulation in the blood circulation before they enter the brain. The test material was injected i.v. into the tail vein in a volume of 100-200 µl per mouse.\nThe test material (either free CF or encapsulated CF) was injected into the tail vein of mice in a volume of up to 200 μl. The quantity of encapsulated CF was always determined prior to the administration and similar amounts of either encapsulated or free CF were injected. At 30 minutes after the injection, mice were anesthetized by Xylazine-Ketamine and blood was withdrawn through cardiac puncture, the mouse was perfused with 10 ml PBS and tissues were dissected out. The specimens were homogenized in PBS, deproteinated by 5% (final concentration) of tricholoro acetic acid (TCA), centrifuged and the supernatants were used for fluorescence measurements.\nThis experiment mesure accumulation of CF in the brain following i.v. administration. […] 30 min after the injection, the animals were sacrificed, perfused with 10 ml PBS and the brains removed and homogenized, deproteinized by 5% tricholoroacetic acid and fluorescence determined in the supernatants obtained following centrifugation. […]"}, "[7]": {"test": "Albumin-FITC fluorescence in cerebral cortex after i.v. injection", "format": "in vivo", "conditions": "mouse cerebral cortex fluorescence", "excerpt": "FIG. 5A: Fluorescence in mouse cerebral cortex after i.v. injection of albumin-FITC (non-encapsulated); FIG. 5B: Fluorescence in mouse cerebral cortex after i.v. injection of albumin-FITC encapsulated in GLH-20 vesicles."}, "[8]": {"test": "Preliminary toxicity studies of vesicles / bolas"}, "[9]": {"test": "Trypsinogen encapsulation in bolaamphiphilic vesicles (Sephadex column, UV or fluorescence)", "format": "physicochemical", "conditions": "10 mg/ml GLH-19 + GLH-20 vesicles"}, "[10]": {"test": "Integrity of GDNF after encapsulation (SDS-PAGE)", "conditions": "monomeric and dimeric forms", "description": "Sodium dodecyl sulfate polyacrylamide gel electrophoresis (SDS-PAGE) was used to examine whether the encapsulation process affects the integrity of the encapsulated GDNF. The test samples were applied on a 5%−/15% SDS-polyacrylamide gel and electrophoresis was performed using a running buffer of 14.4 g glycine and 3 g Tris base per Liter with […]. The gels were then stained by Coomasie blue using the Bio-Safe Coomassie staining protocol and then destained for 30 min in water."}, "[11]": {"tested_on": "SH-SYSY neuroblastoma cells", "test": "GDNF activity: activation of AKT and MAPK", "format": "cell-based, human", "conditions": "20 ng/ml hGDNF; free, encapsulated or added to empty vesicles; Western blot", "description": "To determine the activity of GDNF, we measured the effect of 20 ng/ml hGDNF on the activation of the enzymes AKT and MAPK using SH-SYSY neuroblastoma cells (obtained from the ATTC). For this measurement, we plated the cells in 12 well plates coated with PEI at a density range of 3×10^5-6×10^5 cells/well 48 h prior to the bioassay. Cells were deprived of serum for 2.5 h, stimulated by the test material (plain medium as a control or free GDNF or encapsulated GDNF), washed once with ice-cold PBS and then lysed in […] sample buffer. The lysates were boiled, sonicated and centrifuged and then loaded onto 10% acrylamide gel for SDS-PAGE. After the electrophoresis, the samples were immune-blotted using antibodies against phospho-MAPK44/42 and against phospho-AKT.\nThe effect of the encapsulation process on GDNF activity was also examined by treating neuroblastoma cells that respond to GDNF by activation of kinases, particularly AKT and MAPK. […] AKT and MAPK are activated when they are phosphorylated and GDNF induces phosphorylation of these enzymes in SH-SY5Y neuroblastoma cells. If GDNF activity is impaired, it will not phosphorylate AKT and MAPK to pAKT and pMAPK, respectively. pAKT and pMAPK can be detected by specific antibodies for the phosphorylated forms of the enzymes on a Western blot."}, "[12]": {"test": "GDNF encapsulation in bolaamphiphilic vesicles", "format": "physicochemical", "conditions": "12.5 μg/ml GDNF (AlexaFluor-488); 10 mg/ml GLH-19 + GLH-20 vesicles", "description": "The encapsulation efficiencies of trypsinogen and GDNF were assessed by first running the sample through a Sephadex G-50 column to remove non-encapsulated protein from the encapsulated protein. The fractions obtained from the column (generally 0.5 ml per fraction) were treated by Triton X-100 reduced form to avoid interference with the absorbance reading of the encapsulated material at 280 nm. The concentration of trypsinogen or GDNF proteins was measured by either UV absorbance at 280 nm, or when the quantities of the proteins were low, the proteins were labeled with AlexaFluor®-488 (see procedure for labeling the proteins below) and their quantities determined by fluorescence spectroscopy. Percent encapsulation was determined by dividing the area under the curve of the vesicle fractions by the total area under the curve, which was the sum of the area under the curve of the vesicle preparation and the area under the curve of the free protein. With the use of a calibration curve the concentrations in each were determined. […]\nSince GDNF would be used at sub milligram range and its spectroscopic absorption could not be accurately measured at these concentrations, therefore, fluorescent tagging was investigated as a means of increasing the sensitivity of the determination of low quantities of the encapsulated protein. […]"}, "[13]": {"conditions": "formulated with CHOL and CHEMS at a ratio of 2:1:1"}, "[14]": {"conditions": "vesicles from the bolaamphiphile without additives"}},
  "note": "Entries after “also recorded” stand apart in the source; their conditions may differ.",
  "data": [
    {"molecule": "free enkephalin: non-encapsulated enkephalin administered together with empty vesicles (YGGFL; Leu-enkephalin; UniProt P01210 230-234, looked up)", "values": [
      {"measurement": "analgesia", "setting": "[1]", "result": "not"}
    ]},
    {"molecule": "CCCCCC(OC(=O)C[N+](C)(C)CCOC(C)=O)C(O)C/C=C\\CCCCCCCC(=O)NCCCCCCCCCCOC(=O)CCCCCCC/C=C\\CC(O)C(CCCCC)OC(=O)C[N+](C)(C)CCOC(C)=O.[Cl-].[Cl-]", "note": "(stereo not drawn) [GLH-20]", "values": [
      {"measurement": "type of inhibition of ATC hydrolysis by AChE", "setting": "AChE [2]", "result": "competitive inhibitors"},
      {"measurement": "Diameter (nm)", "setting": "[3]; [13]", "result": 120, "unit": "nm"},
      {"measurement": "Weight (%) main peak", "setting": "[3]; [13]", "result": 100, "unit": "%"},
      {"measurement": "Diameter (nm)", "setting": "[3]; [14]", "result": 368, "unit": "nm"},
      {"measurement": "Weight of Main peak (%)", "setting": "[3]; [14]", "result": 97, "unit": "%"},
      {"measurement": "hydrolysis of ACh head group by AChE / ChE", "setting": "AChE [4]", "result": "hydrolyzed by choline esterases; also recorded: significantly faster"}
    ]},
    {"molecule": "CCCCCC(OC(=O)C[N+](C)(C)CCOC(C)=O)C(O)C/C=C\\CCCCCCCC(=O)NCCCCCCCCCCOC(=O)CCCCCCC/C=C\\CC(O)C(CCCCC)OC(=O)C[N+](C)(C)CCOC(C)=O.[Cl-].[Cl-]", "note": "(stereo not drawn) [GLH-20 (empty vesicles)]", "values": [
      {"measurement": "vesicle stability in storage", "setting": "[5]", "result": "stable in storage"}
    ]},
    {"molecule": "carboxyfluorescein [free CF]", "values": [
      {"measurement": "brain penetration of free CF", "setting": "[6]", "result": "hardly entered the brain"},
      {"measurement": "brain penetration of free CF", "setting": "[6]; listed as Free CF", "result": "did not penetrate into the brain in significant amounts"}
    ]},
    {"molecule": "un-encapsulated albumin-FITC: albumin-FITC (non-encapsulated)", "values": [
      {"measurement": "brain accumulation of albumin-FITC", "setting": "[7]", "result": "little, if any, brain accumulation"}
    ]},
    {"molecule": "CCCCCCCCC(OC(=O)C[N+](C)(C)CCOC(C)=O)C(O)CCCCCCCC(=O)OCCCCCCCCCCOC(=O)CCCCCCCC(O)C(CCCCCCCC)OC(=O)C[N+](C)(C)CCOC(C)=O.[Cl-].[Cl-]", "note": "(stereo not drawn) [GLH-32]", "values": [
      {"measurement": "type of inhibition of ATC hydrolysis by AChE", "setting": "AChE [2]", "result": "competitive inhibitors"},
      {"measurement": "Diameter (nm)", "setting": "[3]; [13]", "result": 134, "unit": "nm"},
      {"measurement": "Weight (%) main peak", "setting": "[3]; [13]", "result": 100, "unit": "%"},
      {"measurement": "Diameter (nm)", "setting": "[3]; [14]", "result": 345, "unit": "nm"},
      {"measurement": "Weight of Main peak (%)", "setting": "[3]; [14]", "result": 68, "unit": "%"},
      {"measurement": "hydrolysis of ACh head group by AChE / ChE", "setting": "AChE [4]", "result": "hydrolyzed by AChE"}
    ]},
    {"molecule": "CCCCCC(OC(=O)CCCC(=O)OCC[N+](C)(C)C)C(O)C/C=C\\CCCCCCCC(=O)NCCCCCCCCCCNC(=O)CCCCCCC/C=C\\CC(O)C(CCCCC)OC(=O)CCCC(=O)OCC[N+](C)(C)C.[Cl-].[Cl-]", "note": "(stereo not drawn) [GLH-19]", "values": [
      {"measurement": "toxicity relative to GLH-20", "setting": "[8]", "result": "less toxic"},
      {"measurement": "hydrolysis of ACh head group by AChE / ChE", "setting": "AChE [4]", "result": "not hydrolyzed by AChE"}
    ]},
    {"molecule": "B1", "values": [
      {"measurement": "percent encapsulation", "setting": "[9]; 50 μg/ml trypsinogen (AlexaFluor-488)", "result": 54, "unit": "%"},
      {"measurement": "percent encapsulation", "setting": "[9]; 100 μg/ml trypsinogen (AlexaFluor-488)", "result": 42, "unit": "%"}
    ]},
    {"molecule": "B2", "values": [
      {"measurement": "GDNF integrity after encapsulation with sonication", "setting": "[10]", "result": "no fragmentation"},
      {"measurement": "phosphorylation of AKT and MAPK", "setting": "[11]", "result": "same degree of phosphorylation"},
      {"measurement": "percent encapsulation", "setting": "[12]", "result": 66, "unit": "%"}
    ]}
  ]
}
